Test results: patent US9211311B2, “Methods for the treatment of neurodegenerative disorders” (priority 2010, dated 2015)

Tested on: male patients exhibiting PD-induced symptoms
Assay: Motor portion of the Unified Parkinson's Disease Rating Scale (UPDRS) before and after intranasal oxytocin
Assay type: in vivo, human
Details: 40 IU intranasal oxytocin; for UPDRS total score after oxytocin therapy: off medications, reassessed 45 minutes to one hour after dosing, items rated 0-4, lower = less severe
Procedure: The participants were in their “off” period, wherein they were taken off their current medications prior to oxytocin therapy. During the experiment, each participant was given 40 IU ([…]) of intranasal oxytocin. The synthetic form of oxytocin was administered by way of an inhaler, such as those used in nasal spray decongestants. Five pumps of the inhaler were dispensed into the left nostril of the participants; the participants were asked to inhale deeply through the nose. Five more pumps were dispensed into the right nostril of the participants and again the participants were asked to inhale deeply. This process was repeated so that, in total, the participants received forty pumps of the inhaler, twenty per nostril.
Immediately following oxytocin infusion, the participants were given a battery of physical and cognitive tests, lasting about fifteen to twenty minutes. These tests included the Motor portion of the Unified Parkinson's Disease Rating Scale (UPDRS) as well as a cognitive test used to establish the mental and emotional status of the participants. For each test, the participants were rated on a scale of zero to four, with four being the symptoms at its most severe state.
After administration of oxytocin, the participants were asked to wait for 45 minutes to one hour, wherein they passed the time by reading, conversing or simply relaxing. Subsequently, the motor skills of the participants were assessed again using the UPDRS. The administration of the UPDRS the first time was to quantifiably evaluate the patient's symptoms uninfluenced by oxytocin infusion, whereas the second administration of the UPDRS test served to quantifiably assess the motor condition of the patient under the influence of oxytocin.
The participants remained under direct supervision throughout the experiment to ensure their comfort and well-being. Once the experimental procedure was completed, the participants were able to leave the clinic and were asked to continue taking their normal medications. The participants were not in any way restricted in their activities for the rest of the day.

CC[C@H](C)[C@@H]1NC(=O)[C@H](Cc2ccc(O)cc2)NC(=O)[C@@H](N)CSSC[C@@H](C(=O)N2CCC[C@H]2C(=O)N[C@@H](CC(C)C)C(=O)NCC(N)=O)NC(=O)[C@H](CC(N)=O)NC(=O)[C@H](CCC(N)=O)NC1=O [oxytocin] was tested, and the “UPDRS total score after oxytocin therapy” value (participant 1, initial total score 24) was 17, the “decrease in UPDRS total score after oxytocin therapy” value (shortened to “decrease in UPDRS total score”) (participant 1, versus initial total score 24) was 30% and the “UPDRS total score after oxytocin therapy” value (participant 2, initial total score 37.5) was 34.5. The “decrease in UPDRS total score” value (participant 2, versus initial total score 37.5) was 8%, the “UPDRS total score after oxytocin therapy” value (participant 3, initial total score 17.5) was 9.5 and the “decrease in UPDRS total score” value (participant 3, versus initial total score 17.5) was 50%. For the same molecule, the “lasting effects due to the administration of oxytocin” value (three male PD patients, observed under supervision throughout the experiment) was “not any lasting effects apparent”.
